This is an account of results in article PMC12223475, “Two Key Ferredoxins for Nitrogen Fixation Have Different Specificities and Biophysical Properties” (Chemistry (Weinheim an Der Bergstrasse, Germany), 2025).

This experiment addresses T1, FdC (Rhodobacter capsulatus, UniProt D5ARY7).
T1 construct: gene fdxC; full length, N-terminal Met replaced by Strep-tag (MAWSHPQFEK), tag kept; E. coli BL21-AI; monomer
Nature of the experiment: X-ray crystallography; UV-Vis; EPR. Type of experiment: binding. Conditions: 1.7 Å; anaerobic crystallisation, pH 8.0; ligands C38, C43, C46, C81.

T1 sequence (D5ARY7 2-95): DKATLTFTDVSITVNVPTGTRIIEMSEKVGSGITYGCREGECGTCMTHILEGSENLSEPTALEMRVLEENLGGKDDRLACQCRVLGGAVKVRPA

As for `[S]1[Fe][S][Fe]1` [[Fe2S2]-cluster], the “X-ray crystallography; UV-Vis; EPR” value is “The globular and monomeric FdC coordinates a [Fe2S2]‐cluster”.
